From publication PMC10135033, “Sulfonamidoboronic Acids as “Cross-Class” Inhibitors of an Expanded-Spectrum Class C Cephalosporinase, ADC-33, and a Class D Carbapenemase, OXA-24/40: Strategic Compound Design to Combat Resistance in Acinetobacter baumannii” (Antibiotics, 2023)
Where two headings read alike, the source gives them in different places.

What was measured:
[1] = system: E. coli DH10B, ADC-7 in pBCSK-; assay: Antimicrobial susceptibility testing, broth microdilution; format: cell-based; settings: Escherichia coli
Protocol: (§1) Based upon the inhibitor kinetics (Ki determinations), CR167 and the sulfonamidoboronic acid 6b were tested against E. coli strains expressing ADC-7 and ADC-33 cloned into pBCSK- (DH10B) (Table 3).
(§2) blaADC-7 pBCSK- and blaADC-33 pBCSK- were cloned and expressed in E. coli DH10B cells as previously described.
(§3) Testing of susceptibility to standard antibiotics was performed with broth microdilution according to CLSI guidelines. MICs for CAZ, CTX, FEP, and IMI were determined using cation-adjusted Mueller–Hinton broth according to CLSI methods, and CR167 or 6b was used at a fixed concentration of 10 mg/L. All MICs were interpreted according to the 2022 Clinical and Laboratory Standards Institute (CLSI) guidelines.

[2] = system: E. coli DH10B, ADC-33 in pBCSK-; assay: as above; format: cell-based; settings: Escherichia coli
Protocol: as §1, §2, §3

[3] = system: A. baumannii ATCC 17978 native ADC KO, ADC-33 pQF1266; assay: as above; format: cell-based; settings: Acinetobacter baumannii
Protocol: The inhibitory effects of both compounds were tested against ADC-33 and OXA-24/-40 in A. baumannii, their native host. ATCC 17978, with its intrinsic chromosomal ADC knocked out (intrinsic OXA still present), was used in these experiments. In this isolate, the ADC MICs were not lowered by the inhibitors as much as they were against the E. coli background (Table 4).
Plasmid pBCSK- containing the blaADC-33 gene was digested with PvuII, which released the blaADC-33 gene, along with the lac promoter, which drives expression. This PvuII fragment was cloned into the SmaI site of the pQF1266 plasmid.
pWH1266 is a vector that replicates in A. baumannii, and the […] pWH1266 construct was generated as follows. The TEM gene was removed using inverse PCR, and an Xba1 site was engineered into the vector. blaOXA-24/40 and its upstream XerC/XerD were amplified from strain NM55. The amplified gene was cloned into the Xba1 site of the altered pWH1266 vector. The construct was confirmed using PCR and sequencing. Both blaADC-33 pQF1266 and […] pWH1266 were then expressed in A. baumannii ATCC 17978 that had the intrinsic chromosomal ADC gene knocked out.
The chromosomal blaADC-51 gene in ATCC 17978 was deleted and replaced with an apramycin resistance cassette using the recombineering method described by Tucker et al.. Primers used for this deletion were: Del AmpC-apra.For: […]; and Del AmpC-apra.Rev: […]. The correct deletion mutant was confirmed using PCR and sequencing.
as §3

SHV-1 = settings: cited from earlier work
ADC-7 = target: ADC-7; parameters: method as in PMID 29144724; settings: cited from earlier work
KPC-2 = system: KPC-2; parameters: method as in PMID 26729496; settings: cited from earlier work
[4] = system: E. coli DH10B pBCSK, blaADC-7; parameters: method as in PMID 29144724; settings: with CR167; cited from earlier work
class C β-lactamase AmpC = target: class C β-lactamase AmpC; parameters: method as in PMID 20945905, PMID 23043117; settings: AmpC from E. coli; cited from earlier work
[5] = ATCC17978, read-out: MIC of CAZ with BLI
[6] = ATCC17978, read-out: MIC of CTX with BLI
[7] = ATCC17978, read-out: MIC of FEP with BLI

Compound | MIC ([1]; read-out: MIC of CAZ with BLI) [µg/mL] | MIC ([1]; read-out: MIC of CTX with BLI) [µg/mL] | MIC ([1]; read-out: MIC of FEP with BLI) [µg/mL] | MIC ([2]; read-out: MIC of CAZ with BLI) [µg/mL] | MIC ([2]; read-out: MIC of CTX with BLI) [µg/mL] | MIC [3, 5] [µg/mL] | MIC [3, 6] [µg/mL] | MIC [3, 7] [µg/mL] | IC50 (SHV-1) [nM] | Ki (ADC-7) [nM] | IC50 (KPC-2) [nM] | MIC for CAZ with CR167 [4] [µg/mL] | Ki (class C β-lactamase AmpC) [nM]
C[C@@H](NS(=O)(=O)Cc1cccc(C(=O)O)c1)B(O)O [6b] | 4 | 2 | 0.12 | 64 | 4 | 64 | 32 | 4 |  |  |  |  | 
O=C(O)c1cccc(CS(=O)(=O)NCB(O)O)c1 [CR167] | 4 | 2 | 0.12 | 64 | 2 | 32 | 16 | 4 | 430 | 160 | 200 | 1 | 1.3
